Source: patent US20140080810A1 (Exelixis, Inc., priority 2010, published 2014)

Molecular target: mTOR/GbL/Raptor (mTORC1) (Homo sapiens, UniProt P42345)
Assay: mTOR/GbL/Raptor (mTORC1) ELISA Assay
Format: biochemical
Conditions: 4E-BP1 phosphorylation, 0.2 nM mTORC1, 10 μM ATP; last bin: >= 2,000 nM or not active under the conditions the assay was run; read-out: IC50 in this assay (mTORC1)
Method: The measurement of mTORC1 enzyme activity was performed in an ELISA assay format following the phosphorylation of 4E-BP1 protein. All experiments were performed in the 384-well format. Generally, 0.5 μL DMSO containing varying concentrations of the test Compound was mixed with 15 μL enzyme solution. Kinase reactions were initiated with the addition of 15 μL of substrates-containing solution. The assay conditions were as follows; 0.2 nM mTORC1, 10 μM ATP and 50 nM NHis-tagged 4E-BPI in 20 mM Hepes, pH 7.2, 1 mM DTT, 50 mM NaCl, 10 mM MnCl2, 0.02 mg/mL BSA, 0.01% CHAPS, 50 mM β-glycerophosphate. Following an incubation of 120 minutes at ambient temperature, 20 μL of the reaction volume was transferred to a Ni-Chelate-coated 384-well plate. The binding step of the 4E-BP1 protein proceeded for 60 minutes, followed by washing 4 times each with 50 μL of Tris-buffered saline solution (TBS). Anti-phospho-4E-BP1 rabbit-IgG (20 μL, 1:5000) in 5% BSA-TBST (0.2% Tween-20 in TBS) was added and further incubated for 60 minutes. Incubation with a secondary HRP-tagged anti-IgG was similarly performed after washing off the primary antibody (4 washes of 50 μL). Following the final wash step with TBST, 20 μL of SuperSignal ELISA Femto (Pierce Biotechnology) was added and the luminescence measured using an EnVision plate reader.

Row | IC50 [nM] | Structure (SMILES)
1 | ≥ 2000 | Cc1nc2ccc(-c3ccc4c(c3)CN(c3ccncn3)CCO4)cc2[nH]1 [Compound 2, 7-(2-methyl-1H-benzimidazol-6-yl)-4-pyrimidin-4-yl-2,3,4,5-tetrahydro-1,4-benzoxazepine]
2 | ≤ 10 | Cc1nc2ccc(-c3ccc4c(c3)CN(c3ncnc5ccc(Br)cc35)CCO4)cc2[nH]1 [Compound 12, 4-(6-bromoquinazolin-4-yl)-7-(2-methyl-1H-benzimidazol-6-yl)-2,3,4,5-tetrahydro-1,4-benzoxazepine]
3 | ≤ 10 | Cc1nc2ccc(-c3ccc4c(c3)CN(c3ncnc5ccc(Cl)cc35)CCO4)cc2[nH]1 [Compound 13, 4-(6-chloroquinazolin-4-yl)-7-(2-methyl-1H-benzimidazol-6-yl)-2,3,4,5-tetrahydro-1,4-benzoxazepine]
4 | 50 to 250 | Cc1nc2ccc(-c3ccc4c(c3)CN(c3ncnc5c(Br)cccc35)CCO4)cc2[nH]1 [Compound 25, 4-(8-bromoquinazolin-4-yl)-7-(2-methyl-1H-benzimidazol-6-yl)-2,3,4,5-tetrahydro-1,4-benzoxazepine]
5 | 250 to 1000 | Cn1cnc2cc(-c3ccc4c(c3)CN(c3ccnc5ccccc35)CCO4)ccc21 [Compound 130, 7-(1-methyl-1H-benzimidazol-5-yl)-4-quinolin-4-yl-2,3,4,5-tetrahydro-1,4-benzoxazepine]
6 | 1000 to 2000 | Cn1ccc2cc(-c3ccc4c(c3)CN(c3ccnc5ccccc35)CCO4)ccc21 [Compound 133, 7-(1-methyl-1H-indol-5-yl)-4-quinolin-4-yl-2,3,4,5-tetrahydro-1,4-benzoxazepine]
7 | ≤ 10 | CC1(C)CCc2ncnc(N3CCOc4ccc(-c5ccc6nc[nH]c6c5)cc4C3)c2C1 [Compound 219, 7-(1H-benzimidazol-6-yl)-4-(6,6-dimethyl-5,6,7,8-tetrahydroquinazolin-4-yl)-2,3,4,5-tetrahydro-1,4-benzoxazepine]
8 | 50 to 250 | COC(=O)Nc1nc2ccc(-c3ccc4c(c3)CN(c3ncnc5c3CC(C)(C)CC5)CCO4)cc2[nH]1 [Compound 235, methyl {6-[4-(6,6-dimethyl-5,6,7,8-tetrahydroquinazolin-4-yl)-2,3,4,5-tetrahydro-1,4-benzoxazepin-7-yl]-1H-benzimidazol-2-yl}carbamate]
9 | 50 to 250 | CCNc1nc2ccc(-c3ccc4c(c3)CN(c3nc(C)nc5cc(O)ccc35)CCO4)cc2[nH]1 [Compound 285, 4-{7-[2-(ethylamino)-1H-benzimidazol-6-yl]-2,3-dihydro-1,4-benzoxazepin-4(5H)-yl}-2-methylquinazolin-7-ol]
10 | 1000 to 2000 | Cc1nc2cc(-c3ccc4c(c3)CN(c3nc(CN(C)C)nc(C)c3C)CCO4)cnc2[nH]1 [Compound 335, 1-{4,5-dimethyl-6-[7-(2-methyl-3H-imidazo[4,5-b]pyridin-6-yl)-2,3-dihydro-1,4-benzoxazepin-4(5H)-yl]pyrimidin-2-yl}-N,N-dimethylmethanamine]
11 | 50 to 250 | Cc1nc2ccc(-c3ccc4c(c3)CN(c3nc(C(C)(C)O)nc5c3CC(C)(C)CC5)CCO4)cc2[nH]1 [Compound 362, 2-{6,6-dimethyl-4-[7-(2-methyl-1H-benzimidazol-6-yl)-2,3-dihydro-1,4-benzoxazepin-4(5H)-yl]-5,6,7,8-tetrahydroquinazolin-2-yl}propan-2-ol]
12 | 10 to 50 | CC1(C)CCc2ncnc(N3CCOc4ccc(-c5cnc(N)c(S(=O)(=O)N6CCC(N)C6)c5)cc4C3)c2C1 (stereo not shown) [Compound 445, 3-[(3-aminopyrrolidin-1-yl)sulfonyl]-5-[4-(6,6-dimethyl-5,6,7,8-tetrahydroquinazolin-4-yl)-2,3,4,5-tetrahydro-1,4-benzoxazepin-7-yl]pyridin-2-amine]
13 | 50 to 250 | CC(C)(O)CCS(=O)(=O)c1cc(-c2ccc3c(c2)CN(c2ncnc4c2CC(C)(C)CC4)CCO3)cnc1N [Compound 459, 4-({2-amino-5-[4-(6,6-dimethyl-5,6,7,8-tetrahydroquinazolin-4-yl)-2,3,4,5-tetrahydro-1,4-benzoxazepin-7-yl]pyridin-3-yl}sulfonyl)-2-methylbutan-2-ol]
14 | ≤ 10 | Cc1nc2cc(-c3ccc4c(c3)CN(c3nc(C5CCCN5)nc5c3CC(C)(C)CC5)CCO4)cnc2[nH]1 (stereo not shown) [Compound 474, 4-(6,6-dimethyl-2-pyrrolidin-2-yl-5,6,7,8-tetrahydroquinazolin-4-yl)-7-(2-methyl-3H-imidazo[4,5-b]pyridin-6-yl)-2,3,4,5-tetrahydro-1,4-benzoxazepine]
15 | 50 to 250 | CC1(C)CCc2ncnc(N3CCOc4ccc(-c5cnc6c(c5)OCCN6)cc4C3)c2C1 [Compound 569, 7-(3,4-dihydro-2H-pyrido[3,2-b][1,4]oxazin-7-yl)-4-(6,6-dimethyl-5,6,7,8-tetrahydroquinazolin-4-yl)-2,3,4,5-tetrahydro-1,4-benzoxazepine]
16 | ≥ 2000 | CC1(C)CCc2ncnc(N3CCOc4ccc(-c5cnc(NCc6ccccc6)c(NS(C)(=O)=O)c5)cc4C3)c2C1 [Compound 630, N-{5-[4-(6,6-dimethyl-5,6,7,8-tetrahydroquinazolin-4-yl)-2,3,4,5-tetrahydro-1,4-benzoxazepin-7-yl]-2-[(phethylmethyl)amino]pyridin-3-yl}methanesulfonamide]
17 | 50 to 250 | CCNc1nc2ccc(-c3ccc4c(c3)CN(c3cc(C)nc5cc(F)ccc35)CCO4)cc2[nH]1 [Compound 641, N-ethyl-6-[4-(7-fluoro-2-methylquinolin-4-yl)-2,3,4,5-tetrahydro-1,4-benzoxazepin-7-yl]-1H-benzimidazol-2-amine]
18 | ≤ 10 | Cc1nc2cc(-c3ccc4c(c3)CN(c3nc(N)nc(C)c3Cc3ccc(F)cc3)CCO4)ccc2[nH]1 [Compound 660, 5-[(4-fluorophenyl)methyl]-4-methyl-6-[7-(2-methyl-1H-benzimidazol-5-yl)-2,3-dihydro-1,4-benzoxazepin-4(5H)-yl]pyrimidin-2-amine]

Molecular target: PI3Kα (Homo sapiens, UniProt P42336)
Assay: PI3K Biochemical Assay (ATP consumed, luciferase-luciferin chemiluminescence)
Conditions: 1 μM ATP, 10 μM PIP2; last bin: >= 2,000 nM or not active under the conditions the assay was run; read-out: IC50 for PI3Kα in this assay
Method: PI3Kα activity is measured as the percent of ATP consumed following the kinase reaction using luciferase-luciferin-coupled chemiluminescence. Reactions were conducted in 384-well white, medium binding microtiter plates (Greiner). Kinase reactions were initiated by combining test compounds, ATP, substrate (PIP2), and kinase in a 20 μL volume in a buffer solution. The standard PI3Kalpha assay buffer is composed 50 mM Tris, pH 7.5, 1 mM EGTA, 10 mM MgCl2, 1 mM DTT and 0.03% CHAPS. The standard assay concentrations for enzyme, ATP, and substrate are 1.5 nM, 1 μM, and 10 μM, respectively. The reaction mixture was incubated at ambient temperature for approximately 2 h. Following the kinase reaction, a 10 μL aliquot of luciferase-luciferin mix (Promega Kinase-Glo) was added and the chemiluminescence signal measured using a Victor2 plate reader (Perkin Elmer). Total ATP consumption was limited to 40-60% and IC50 values of control compounds correlate well with literature references. Substituting PI3Kα with PI3Kβ, PI3Kγ, or PI3Kδ, the inhibitory activity of the compounds for the other isoforms of I3K were measured.

Chain of PI3Kα (P42336 whole entry): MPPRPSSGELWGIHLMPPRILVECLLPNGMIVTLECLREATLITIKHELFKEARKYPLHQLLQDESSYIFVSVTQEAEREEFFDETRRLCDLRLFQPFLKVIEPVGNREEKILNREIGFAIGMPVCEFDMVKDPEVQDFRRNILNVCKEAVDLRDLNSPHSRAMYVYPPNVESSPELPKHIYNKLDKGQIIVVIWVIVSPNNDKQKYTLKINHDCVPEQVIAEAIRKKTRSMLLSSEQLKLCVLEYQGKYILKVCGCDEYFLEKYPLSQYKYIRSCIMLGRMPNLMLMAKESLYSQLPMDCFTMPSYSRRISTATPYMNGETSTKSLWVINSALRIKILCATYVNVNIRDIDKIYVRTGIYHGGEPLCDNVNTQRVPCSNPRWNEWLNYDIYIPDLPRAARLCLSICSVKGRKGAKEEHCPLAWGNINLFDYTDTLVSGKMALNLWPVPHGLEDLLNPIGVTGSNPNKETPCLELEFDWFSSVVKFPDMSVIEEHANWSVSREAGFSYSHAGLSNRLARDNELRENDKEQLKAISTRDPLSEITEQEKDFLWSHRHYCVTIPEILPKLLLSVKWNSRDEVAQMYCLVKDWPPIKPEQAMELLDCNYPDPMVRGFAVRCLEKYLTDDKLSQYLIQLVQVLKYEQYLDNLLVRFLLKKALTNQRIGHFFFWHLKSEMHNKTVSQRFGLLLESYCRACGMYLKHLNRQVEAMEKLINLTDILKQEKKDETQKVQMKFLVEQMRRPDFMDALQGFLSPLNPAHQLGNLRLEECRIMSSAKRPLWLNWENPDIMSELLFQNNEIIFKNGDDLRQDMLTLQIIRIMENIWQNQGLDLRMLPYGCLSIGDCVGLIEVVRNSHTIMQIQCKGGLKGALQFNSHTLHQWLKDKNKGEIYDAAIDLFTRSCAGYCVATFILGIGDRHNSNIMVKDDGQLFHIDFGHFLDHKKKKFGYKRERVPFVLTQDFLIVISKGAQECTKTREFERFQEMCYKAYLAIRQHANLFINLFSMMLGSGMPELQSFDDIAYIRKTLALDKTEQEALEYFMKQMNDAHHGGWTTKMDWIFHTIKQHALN
Chain of PI3Kα (P27986 whole entry partner): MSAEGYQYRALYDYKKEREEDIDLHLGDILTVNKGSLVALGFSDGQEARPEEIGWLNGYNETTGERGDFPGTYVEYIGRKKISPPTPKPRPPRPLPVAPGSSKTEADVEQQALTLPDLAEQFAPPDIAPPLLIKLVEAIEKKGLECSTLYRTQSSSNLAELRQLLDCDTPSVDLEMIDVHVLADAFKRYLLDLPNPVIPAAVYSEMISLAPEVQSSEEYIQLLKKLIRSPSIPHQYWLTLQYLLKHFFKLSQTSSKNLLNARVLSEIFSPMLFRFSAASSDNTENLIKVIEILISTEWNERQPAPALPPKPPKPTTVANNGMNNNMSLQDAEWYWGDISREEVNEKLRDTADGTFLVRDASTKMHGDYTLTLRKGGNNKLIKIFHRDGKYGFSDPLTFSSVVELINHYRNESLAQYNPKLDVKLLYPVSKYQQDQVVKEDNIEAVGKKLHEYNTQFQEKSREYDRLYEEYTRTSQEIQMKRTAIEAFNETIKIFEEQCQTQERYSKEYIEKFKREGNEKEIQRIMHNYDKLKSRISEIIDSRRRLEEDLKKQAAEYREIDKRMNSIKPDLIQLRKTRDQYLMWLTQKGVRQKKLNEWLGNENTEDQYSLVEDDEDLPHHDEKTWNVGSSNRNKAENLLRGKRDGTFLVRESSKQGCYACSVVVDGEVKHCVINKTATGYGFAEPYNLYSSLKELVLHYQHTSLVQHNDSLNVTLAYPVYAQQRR

Row | IC50 [nM] | Structure (SMILES)
19 | ≥ 2000 | CCN(CC)c1nc(N2CCOc3ccc(-c4ccc5nc(C)[nH]c5c4)cc3C2)c2ccccc2n1 [Compound 6]
20 | ≥ 2000 | Cc1nc2ccc(-c3ccc4c(c3)CN(c3cc(-c5ccccc5)nc(-c5ccccc5)n3)CCO4)cc2[nH]1 [Compound 7]
21 | 1000 to 2000 | Cn1cnc2cc(-c3ccc4c(c3)CN(c3ccnc5ccccc35)CCO4)ccc21 [Compound 130, 7-(1-methyl-1H-benzimidazol-5-yl)-4-quinolin-4-yl-2,3,4,5-tetrahydro-1,4-benzoxazepine]
22 | 1000 to 2000 | Cc1nc2cc(-c3ccc4c(c3)CN(c3nc([C@@H]5CCCN5C(=O)OCc5ccccc5)nc5c3CC(C)(C)CC5)CCO4)cnc2[nH]1 [Compound 645, phenylmethyl (2S)-2-{6,6-dimethyl-4-[7-(2-methyl-3H-imidazo[4,5-b]pyridin-6-yl)-2,3-dihydro-1,4-benzoxazepin-4(5H)-yl]-5,6,7,8-tetrahydroquinazolin-2-yl}pyrrolidine-1-carboxylate]
